Experimental findings from patent US7547729B2, “1,3-diphenylprop-2-en-1-one derivative compounds, preparation method thereof and uses of same” (Genfit, priority 2004, dated 2009) are described below.

The target of assay [1] is T1, PPARγ (Homo sapiens, UniProt P37231).
T1 construct: expressed in transfected cells; host or cells: COS-7 cells
T1 sequence (P37231 238-503 limits assumed): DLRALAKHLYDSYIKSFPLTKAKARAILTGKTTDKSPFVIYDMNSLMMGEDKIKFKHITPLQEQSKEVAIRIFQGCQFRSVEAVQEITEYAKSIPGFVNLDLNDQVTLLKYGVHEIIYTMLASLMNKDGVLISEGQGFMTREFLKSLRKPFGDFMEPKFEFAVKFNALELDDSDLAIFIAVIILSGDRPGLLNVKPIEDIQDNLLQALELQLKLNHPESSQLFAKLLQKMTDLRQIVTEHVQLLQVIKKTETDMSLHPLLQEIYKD
Nature of the assay: PPARγ/Gal4 transactivation system in COS-7 cells. Type of assay: cell-based. Conditions: 24 hours. How it is done:
(§1) COS-7 cells were incubated with different concentrations of the inventive compounds for 24 hours. The results are expressed as the induction factor (ratio of luminescent signal obtained with the compound and that observed without the compound) after the different treatments.
(§2) PPAR activation was tested in vitro in RK13 epitheloid or COS-7 cell lines by measuring the transcriptional activity of chimeras composed of the DNA binding domain of the yeast gal4 transcription factor and the ligand binding domain of the different PPARs. These latter results were then confirmed in cell lines according to the following protocols:
(§3) RK13 cells were from ECACC (Porton Down, UK), COS-7 cells were from the ATCC (American Type Culture Collection) and were grown in DMEM medium supplemented with 10% (VN) fetal calf serum, 100 U/ml penicillin (Gibco, Paisley, UK) and 2 mM L-glutamine (Gibco, Paisley, UK). The culture medium was changed every two days. Cells were kept at 37° C. in a humidified 95% air/5% CO2 atmosphere.
(§4) The plasmids pG5TkpGL3, pRL-CMV, pGal4-hPPARα, pGal4-hPPARγ, pGal4-hPPARδ and pGal4-φ have been described by Raspe, Madsen et al. (1999). The pGal4-mPPARα, pGal4-hPPARγ and pGal4-hPPARδ constructs were obtained by cloning into the pGal4-φ vector of PCR-amplified DNA fragments corresponding to the DEF domains of the human PPARα, PPARγ and PPARδ nuclear receptors.
(§5) RK13 cells were seeded in 24-well culture dishes at 5×10^4 cells/well, COS-7 cells in 96-well culture dishes at 5×10^4 cells/well and transfected for 2 hours with the reporter plasmid pG5TkpGL3 (50 ng/well), the expression vectors pGal4-φ, pGal4-mPPARα, pGal4-hPPARα, pGal4-hPPARγ, pGal4-hPPARδ (100 ng/well) and the transfection efficiency control vector pRL-CMV (1 ng/well) according to the previously described protocol (Raspe, Madsen et al. 1999), then incubated for 36 hours with the test compounds. At the end of the experiment, the cells were lysed (Gibco, Paisley, UK) and luciferase activity was determined with a Dual-Luciferase™ Reporter Assay System kit (Promega, Madison, Wis., USA) for RK13 cells and Steady Glow Luciferase (Promega) for COS-7 cells according to the supplier's instructions as previously described. The protein content of the cell extracts was then measured with the Bio-Rad Protein Assay (Bio-Rad, Munich, Germany) as directed by the supplier.

The subject of assay [2] is LDL. The assay can be described thus: Protection against LDL oxidation by copper (conjugated diene formation). Type of assay: biochemical. Conditions: for rate of LDL oxidation: FIG. 8b, absence of compounds 2.5; for kinetics of LDL oxidation (lag phase): FIG. 5a, no control value printed; for LDL oxidation rate: FIG. 5b, absence of compounds 2. As to the method: Unless otherwise indicated, the reagents were from Sigma (St Quentin, France). LDL were prepared according to the method described by Lebeau et al. (Lebeau, Furman et al. 2000).
The solutions of test compounds were prepared at 10^−2 M concentration in bicarbonate buffer (pH 9) and diluted in PBS to obtain final concentrations ranging from 0.1 to 100 μM
Prior to oxidation, EDTA was removed from the LDL preparation by dialysis. Oxidation then took place at 30° C. by adding 100 μl of 16.6 μM CuSO4 solution to 160 μL of LDL (125 μg protein/ml) and 20 μl of a test compound solution. The formation of dienes, the species under observation, was followed by measuring optical density at 232 nm in the samples treated with the compounds in the presence or absence of copper. Optical density at 232 nm was measured every 10 minutes for 8 hours in a thermostated spectrophotometer (Tecan Ultra 380). The analyses were performed in triplicate. The compounds were considered to have antioxidant activity when they induced a longer lag phase and reduced the rate of oxidation and the amount of dienes formed in comparison with the control sample.

Assay [3] has as its target T2, PPARα (Homo sapiens, UniProt Q07869).
T2 construct: expressed in transfected cells; host or cells: COS-7 cells
T2 sequence (Q07869 239-466 limits assumed): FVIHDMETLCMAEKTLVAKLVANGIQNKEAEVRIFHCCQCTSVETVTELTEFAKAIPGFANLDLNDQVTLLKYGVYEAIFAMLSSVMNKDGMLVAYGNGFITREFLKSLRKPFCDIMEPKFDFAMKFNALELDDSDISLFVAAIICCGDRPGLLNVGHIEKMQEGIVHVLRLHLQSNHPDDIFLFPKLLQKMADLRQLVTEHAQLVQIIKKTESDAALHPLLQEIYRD
The assay can be described thus: PPARα/Gal4 transactivation system in COS-7 cells. It is filed as cell-based. Particulars: 24 hours. As to the method: as §1, §2, §3, §4, §5

The mark [4] stands for this setting: FIG. 8a, 10^−4M, absence of compounds 67.3 minutes.
The mark [5] stands for this setting: FIG. 5c, 10^−4M, absence of compounds 386.
Where [6] appears, read: FIG. 7a, 10^−4M, absence of compounds 67.3 minutes.

Molecules are shown by their SMILES.

Regarding `CSc1ccc(C(=O)/C=C/c2cc(Br)c(OC(C)(C)C(=O)O)c(Br)c2)cc1` [compound 8, 1-(4-Methylthiophenyl)-3-(4-carboxydimethylmethyloxy-3,5-dibromophenyl)prop-2-ene-1-one], the Induction factor in assay [1] (1 μM) turned out to be 2.13; in assay [1] (10 μM) it was 2.74; in assay [3] (1 μM) it was 15.67; in assay [3] (10 μM) it was 12.66. This molecule also yielded a lag phase in assay [2] (FIG. 2a, 10^−4M, copper alone 132 minutes) of 169 min. Further, in assay [2] (FIG. 2b, 10^−4M, copper alone 2.2), the “rate of diene formation” value is 1.7 nmol/min/mg. For the same molecule, the “total amount of dienes formed” value in assay [2] (FIG. 2c, 10^−4M, copper alone 511) is 474 nmol/mg.

In the case of `COc1ccc(C(=O)/C=C/c2cc(C)c(OC(C)(C)C(=O)O)c(C)c2)cc1C` [compound 37, 1-(4-Methoxy-3-methylphenyl)-3-(4-carboxydimethylmethyloxy-3,5-dimethylphenyl)prop-2-en-1-one], the lag phase in assay [2] (FIG. 6a, 10^−4M, absence of compound 56 minutes) is 106 min. In assay [2] (FIG. 6b, 10^−4M, absence of compound 2), the oxidation rate is given as 1.8 nmol/min/mg of LDL. Besides, in assay [2] (FIG. 6c, 10^−4M, absence of compound 360.0), the “total amount of dienes formed” value is listed as 326.9 nmol/mg of LDL. Also, the Induction factor was 1.54 in assay [3] (0.01 μM); 2.54 in assay [3] (0.03 μM); 7.89 in assay [3] (0.1 μM); 17.25 in assay [3] (0.3 μM); 19.77 in assay [3] (1 μM); 16.89 in assay [3] (3 μM).

In the case of `COc1ccc(C(=O)/C=C/c2cc(C)c(OC(C)(C)C(=O)O)c(C)c2)cc1F` [compound 35, 1-(4-Methoxy-3-fluorophenyl)-3-(4-carboxydimethylmethyloxy-3,5-dimethylphenyl)prop-2-en-1-one], the Induction factor in assay [3] (0.003 μM) is 1.41; in assay [3] (0.01 μM), 1.54; in assay [3] (0.03 μM), 2.53; in assay [3] (0.1 μM) it was 7.47; in assay [3] (0.3 μM) it was 15.51; in assay [3] (1 μM) it was 24.33. Besides, the Induction factor in assay [3] (3 μM) amounted to 23.70; in assay [3] (10 μM), 21.03.

In turn, `Cc1cc(C(=O)/C=C/c2cc(C)c(OC(C)(C)C(=O)O)c(C)c2)cc(C)c1OCCN1CCOCC1` [compound 43, 1-(3,5-Dimethyl-4-(morpholin-4-ylethyloxy)phenyl)-3-(4-carboxydimethylmethyloxy-3,5-dimethylphenyl)prop-2-en-1-one] displayed a lag phase in assay [2] (setting [4]) of 97 min. In assay [2] (10^−4M), the “rate of LDL oxidation” value came out at 2.2 nmol/min/mg.

For the molecule `COc1c(C)cc(C(=O)/C=C/c2cc(C)c(OC(C)(C)C(=O)O)c(C)c2)cc1C` [compound 17, 1-(4-Methoxy-3,5-dimethylphenyl)-3-(4-carboxydimethylmethyloxy-3,5-dimethylphenyl)prop-2-en-1-one], the lag phase in assay [2] (setting [4]) amounted to 148 min. Moreover, in assay [2] (10^−4M), the “rate of LDL oxidation” value is 1.8 nmol/min/mg.

For the molecule `Cc1cc(/C=C/C(=O)c2ccc(OCCC3CCCCC3)cc2)cc(C)c1OC(C)(C)C(=O)O` [compound 11, 1-(4-Cyclohexylethyloxyphenyl)-3-(4-carboxydimethylmethyloxy-3,5-dimethylphenyl)prop-2-en-1-one], in assay [2] (FIG. 3a, 3.3×10^−5M, absence of compound 87.2 minutes), the “lag phase (maximum)” value came to 210 min. The lag phase in assay [2] (FIG. 3a, 10^−6 M, absence of compound 87.2 minutes) was 101.5 min.

Turning to `Cc1cc(C)c(C(=O)/C=C/c2cc(C)c(OC(C)(C)C(=O)O)c(C)c2)cc1C` [compound 25, 1-(2,4,5-Trimethylphenyl)-3-(4-carboxydimethylmethyloxy-3,5-dimethylphenyl)prop-2-en-1-one], in assay [2] (10^−4M), the “kinetics of LDL oxidation (lag phase)” value is 87.6 min and the LDL oxidation rate came to 1.6 nmol/min/mg. Besides, the “total amount of dienes formed” value in assay [2] (setting [5]) is given as 365 nmol/mg.

In the case of `Cc1cc(C(=O)/C=C/c2cc(C)c(OC(C)(C)C(=O)O)c(C)c2)cc(C)c1OCCSC1CCCCC1` [compound 27, 1-(4-Cyclohexylthioethyloxy-3,5-dimethylphenyl)-3-(4-carboxydimethylmethyloxy-3,5-dimethylphenyl)prop-2-en-1-one], in assay [2] (10^−4M), the “kinetics of LDL oxidation (lag phase)” value was determined as 170.8 min and the LDL oxidation rate is recorded as 0.8 nmol/min/mg. In assay [2] (setting [5]), the “total amount of dienes formed” value is given as 374 nmol/mg.

Consider `COc1ccc(C(=O)/C=C/c2cc(C)c(OC(C)(C)C(=O)O)c(C)c2)cc1C(F)(F)F` [compound 47, 1-(4-Methoxy-3-trifluoromethylphenyl)-3-(4-carboxydimethylmethyloxy-3,5-dimethylphenyl)prop-2-en-1-one], for which the lag phase in assay [2] (setting [6]) came to 126.5 min.

The molecule `COc1ccc(OC)c(C(=O)/C=C/c2cc(C)c(OC(C)(C)C(=O)O)c(C)c2)c1` [compound 41, 1-(2,5-Dimethoxyphenyl)-3-(4-carboxydimethylmethyloxy-3,5-dimethylphenyl)prop-2-en-1-one] returned a lag phase in assay [2] (setting [6]) of 100 min. In assay [2] (FIG. 7c, 10^−4M, absence of compounds 432.5), the “total amount of dienes formed” value is reported as 403 nmol/mg of LDL.

In turn, `CCCCCCOc1c(C)cc(C(=O)/C=C/c2cc(C)c(OC(C)(C)C(=O)O)c(C)c2)cc1C` [compound 19, 1-(4-Hexyloxy-3,5-dimethylphenyl)-3-(4-carboxydimethylmethyloxy-3,5-dimethylphenyl)prop-2-en-1-one] registered a lag phase in assay [2] (FIG. 4a, 10^−4M, copper alone 61 minutes) of 92.5 min. The diene formation rate in assay [2] (FIG. 4b, 10^−4M, absence of compounds 1.9) was 1.6 nmol/min/mg of LDL. In assay [2] (FIG. 4c, 10^−4M, absence of compound 370.9), the “total amount of dienes formed” value is 346.6 nmol/mg of LDL.
